Data as given in patent US9370526B2, “Combination hormone replacement therapy (HRT) and melatonin to prevent and treat mammary cancer” (Duquesne University of the Holy Spirit, priority 2009, dated 2016).

Key:
[1] = tested on: RNA expression in the lower mammary gland; assay: RNA expression in the lower mammary gland by microarray analysis; assay type: in vivo, mice
Description: FIG. 3 reports aggregated data regarding thousands of RNA fragments tested for over- or under-expression of more than one and one-half times more or less expression than in control, for mice treated with C/C (no hormone, no melatonin control), C/M (no hormone/melatonin), EMP/C (estrogen/mid progesterone (that is, half the recommended dose of progesterone, or 50 mg (P4)) but no melatonin) and EMP/M (estrogen/mid progesterone (that is, half the recommended dose of progesterone, or 50 mg (P4)) and melatonin).

[2] = tested on: mammary tumors in MMTV-neu mice; assay: Mammary tumor growth and progression (tumor weight, volume, metastatic incidence), same study; assay type: in vivo; settings: compared to control animals (FIG. 2)
Description: (§1) We studied the effects of the present combination therapy as follows. We chose a mouse model, MMTV-neu mice, which express the neu oncogene that mimics HER2+ breast cancer. In a population of mice, both melatonin and HRT were given orally to correlate with the dosage method in women, basing the dosing on diet based on the calories an average woman consumes daily, namely, 1800 kcal, but adjusting for the small size and metabolism of the mice. Estrogen+progestin HRT contained the bioidentical hormones 17β-estradiol (E2) at the currently recommended dosage for women (0.5 mg/1800 kcal) and progesterone (P4) at half of the recommended dose (50 mg/1800 kcal). For example, the daily mouse dose would be less than 500 mcg progesterone (P4). Melatonin was provided in the drinking water at a concentration of 15 mg/L (dose equivalent to a 5 mg tablet for women) only during the night to supplement the normal nocturnal surge in endogenous melatonin. Using drinking water rather than food to administer melatonin allowed the mice continual access to the control and HRT diets, instead of just during the night (dark cycle).

[3] = tested on: MMTV-neu mice (neu oncogene, mimics HER2+ breast cancer); assay: Mammary tumor onset (latency) and incidence in MMTV-neu mice given oral HRT diet and/or nocturnal melatonin in drinking water; assay type: in vivo
Description: as §1
Referring now to FIG. 1, survival curves are shown which represent the age of primary mammary tumor onset in weeks, on the x axis, and percent mammary tumor incidence on the y axis. FIG. 1a represents age of primary mammary tumor onset and incidence between control (C/V) vs. melatonin (C/M) groups, with C signifying no hormone administration, V signifying no melatonin administration, and M signifying melatonin administration. FIG. 1b represents control vs. HRT (HRT/V) groups, with C signifying no hormone administration, V signifying no melatonin administration, and with HRT signifying Hormone Replacement Therapy (in FIG. 1b, without melatonin, or “V”). FIG. 1c represents the results of HRT/V versus HRT/M administration (M=melatonin) and FIG. 1d represents the results of CN versus HRT/M administration. […] No change in body weight occurred as a result of the treatments. […] FIG. 1c represents HRT vs. HRT plus melatonin; FIG. 1d represents control versus HRT plus melatonin.

In the case of `COc1ccc2[nH]cc(CCNC(C)=O)c2c1` [melatonin], the “RNA expression changes (upregulation and downregulation), in words” value [1] is reported as “limited number of RNA expression changes”, the tumor volume [2] is reported as “significant decrease” and the tumor weight [2] is reported as “significant decrease”. The “incidence of mammary cancer, in words” value ([3]; compared to control animals) was “did not modify”, the “latency of mammary cancer (age of primary tumor onset), in words” value ([3]; compared to control animals) was “did not modify” and the “incidence of mammary cancer (animals with tumor/animals in group)” value ([3]; control 44/57) was 42/57. The “incidence of mammary cancer” value ([3]; control 77%) was 74%.
